Article PMC5814837 (Pest Management Science, 2017)

molecular target: mitochondrial succinate dehydrogenase (SDH) (Zymoseptoria tritici, UniProt F9X9V6+F9XH52+O42772, A84V); assay: biochemical; settings: IC50

Compared with O=C(NCCc1ncc(C(F)(F)F)cc1Cl)c1ccccc1C(F)(F)F [Fluopyram, fluopyram], Cn1cc(C(=O)Nc2ccc(F)cc2-c2ccc(Cl)c(Cl)c2)c(C(F)F)n1 [Bixafen, bixafen] is 140-fold lower in IC50: 14.8 ± 1.32 µM for the first, 0.106 ± 0.017 µM for the second.

For Cc1cc(OC(C)C)ccc1C(=O)C(C)(C)NC(=O)c1sccc1C [Isofetamid, N‐[1,1‐dimethyl‐2‐(4‐isopropoxy‐o‐tolyl)‐2‐oxoethyl]‐3‐methylthiophene‐2‐carboxamide], the IC50 was > 32 µM.
